# In PubChem BioAssay AID248 (DTP/NCI, 2004):
# Values joined by “and” are separate entries in the source; they are usually repeats but may differ in a detail not shown here. Identical values can stand only once. Toxic doses and inconclusive results are not listed.
# Tested on: L1210 leukemia ip in BDF1 mice, survival T/C
# Test: NCI In Vivo Anticancer Drug Screen. Data for tumor model L1210 Leukemia (intraperitoneal) in B6D2F1 (BDF1) mice
# Conditions: endpoint: mean survival time, higher = longer survival
# In short: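 Mice bearing the transplanted tumor received compound or vehicle. Survival of the treated group was divided by that of the vehicle-treated control group to give the ratio.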
# [1] = dose: 12.5 mg/kg/injection, schedule: Q04DX003 (ip), vehicle: saline with Tween-80
# [2] = dose: 100.0 mg/kg/injection, schedule: Q04DX003 (ip), vehicle: saline with Tween-80
# [3] = dose: 50.0 mg/kg/injection, schedule: Q01DX009 (ip), vehicle: saline with Tween-80
# [4] = dose: 100.0 mg/kg/injection, schedule: Q01DX009 (ip), vehicle: saline with Tween-80
# [5] = dose: 200.0 mg/kg/injection, schedule: Q01DX009 (ip), vehicle: saline with Tween-80
# [6] = dose: 100.0 mg/kg/injection, schedule: Q04DX002 (ip), vehicle: Klucel (hydroxypropylcellulose) (HPC)
# [7] = dose: 200.0 mg/kg/injection, schedule: Q04DX002 (ip), vehicle: Klucel (hydroxypropylcellulose) (HPC)
# [8] = dose: 50.0 mg/kg/injection, schedule: Q01DX001 (ip), vehicle: carboxymethylcellulose (CMC)
# [9] = dose: 100.0 mg/kg/injection, schedule: Q01DX001 (ip), vehicle: carboxymethylcellulose (CMC)
# [10] = dose: 200.0 mg/kg/injection, schedule: Q01DX001 (ip), vehicle: carboxymethylcellulose (CMC)
# [11] = dose: 400.0 mg/kg/injection, schedule: Q01DX001 (ip), vehicle: carboxymethylcellulose (CMC)
# [12] = dose: 50.0 mg/kg/injection, schedule: Q01DX009 (ip), vehicle: Klucel (hydroxypropylcellulose) (HPC)
# [13] = dose: 100.0 mg/kg/injection, schedule: Q01DX009 (ip), vehicle: Klucel (hydroxypropylcellulose) (HPC)
# [14] = dose: 100.0 mg/kg/injection, schedule: Q04DX003 (ip), vehicle: Klucel (hydroxypropylcellulose) (HPC)
# [15] = dose: 200.0 mg/kg/injection, schedule: Q01DX009 (ip), vehicle: Klucel (hydroxypropylcellulose) (HPC)
# [16] = dose: 200.0 mg/kg/injection, schedule: Q04DX003 (ip), vehicle: Klucel (hydroxypropylcellulose) (HPC)
# [17] = dose: 400.0 mg/kg/injection, schedule: Q04DX003 (ip), vehicle: Klucel (hydroxypropylcellulose) (HPC)
# [18] = dose: 100.0 mg/kg/injection, schedule: Q01DX001 (ip), vehicle: saline
# [19] = dose: 200.0 mg/kg/injection, schedule: Q01DX001 (ip), vehicle: saline
# [20] = dose: 400.0 mg/kg/injection, schedule: Q01DX009 (ip), vehicle: Klucel (hydroxypropylcellulose) (HPC)
# [21] = dose: 400.0 mg/kg/injection, schedule: Q04DX002 (ip), vehicle: Klucel (hydroxypropylcellulose) (HPC)
# [22] = dose: 200.0 mg/kg/injection, schedule: Q04DX003 (ip), vehicle: saline with Tween-80
# [23] = dose: 400.0 mg/kg/injection, schedule: Q04DX003 (ip), vehicle: saline with Tween-80
structure (smiles),measurement,setting,value
C=CCn1cnc2c(=S)nc[nH]c21,T/C,"dose: 12.0 mg/kg/injection, schedule: Q01DX015 (ip), vehicle: other",124 % of control
same,T/C,"dose: 37.5 mg/kg/injection, schedule: Q01DX Z (ip), vehicle: alkali diluted with saline",166 % of control
same,T/C,"dose: 63.0 mg/kg/injection, schedule: Q01DX015 (ip), vehicle: other",92 % of control
same,T/C,"dose: 75.0 mg/kg/injection, schedule: Q01DX Z (ip), vehicle: alkali diluted with saline",114 % of control
same,T/C,"dose: 100.0 mg/kg/injection, schedule: Q01DX001 (ip), vehicle: other",116 % of control
same,T/C,"dose: 108.0 mg/kg/injection, schedule: Q01DX015 (ip), vehicle: other",87 % of control
same,T/C,"dose: 150.0 mg/kg/injection, schedule: Q01DX Z (ip), vehicle: alkali diluted with saline",92 % of control
c1ccc2c(c1)OCC(CNC1CCCCC1)O2 (stereo not given),T/C,[1],100 % of control
same,T/C,"dose: 25.0 mg/kg/injection, schedule: Q04DX003 (ip), vehicle: saline with Tween-80",94 % of control and 100 % of control
same,T/C,"dose: 50.0 mg/kg/injection, schedule: Q04DX003 (ip), vehicle: saline with Tween-80",94 % of control
same,T/C,[2],98 % of control and 100 % of control
O=C1OC(=O)c2ccc(S)c3cccc1c23,T/C,[3],96 % of control
same,T/C,[4],102 % of control
same,T/C,[5],94 % of control and 101 % of control
CCOC(=O)c1c(-c2ccc([N+](=O)[O-])cc2)c(/C=N\O)n(-c2ccccc2)c1C,T/C,[6],87 % of control
same,T/C,[7],94 % of control
CC(=O)c1ccc(C)c([N+](=O)[O-])c1,T/C,[8],98 % of control
same,T/C,[9],91 % of control
same,T/C,[10],107 % of control
same,T/C,[11],91 % of control
O=C(CCCN1CCC2(CC1)C(=O)NCN2c1ccccc1)c1ccccc1,T/C,"dose: 10.0 mg/kg/injection, schedule: Q04DX003 (ip), vehicle: Klucel (hydroxypropylcellulose) (HPC)",96 % of control
same,T/C,"dose: 20.0 mg/kg/injection, schedule: Q04DX003 (ip), vehicle: Klucel (hydroxypropylcellulose) (HPC)",98 % of control
same,T/C,"dose: 40.0 mg/kg/injection, schedule: Q04DX003 (ip), vehicle: Klucel (hydroxypropylcellulose) (HPC)",101 % of control
O=S(=O)(F)c1c(Cl)cccc1CBr,T/C,"dose: 25.0 mg/kg/injection, schedule: Q01DX009 (ip), vehicle: saline with Tween-80",100 % of control
same,T/C,[3],96 % of control
same,T/C,[4],86 % of control
CC(=O)C1CC(CC(=O)O)C1(C)C (stereo not given),T/C,[12],95 % of control
same,T/C,[13],100 % of control
same,T/C,[14],101 % of control
same,T/C,[15],97 % of control
same,T/C,[16],101 % of control
same,T/C,[17],97 % of control
CC1=NN(c2ccccc2)C(=O)C1N=Nc1ccc(S(=O)(=O)Nc2nccs2)cc1 (stereo not given),T/C,[18],96 % of control
same,T/C,[19],91 % of control
same,T/C,"dose: 400.0 mg/kg/injection, schedule: Q01DX001 (ip), vehicle: saline",91 % of control
OCc1c2ccccc2cc2ccccc12,T/C,"dose: 100.0 mg/kg/injection, schedule: Q01DX001 (ip), vehicle: saline with Tween-80",93 % of control
same,T/C,"dose: 200.0 mg/kg/injection, schedule: Q01DX001 (ip), vehicle: saline with Tween-80",87 % of control
same,T/C,"dose: 400.0 mg/kg/injection, schedule: Q01DX001 (ip), vehicle: saline with Tween-80",93 % of control
Cn1ccnc1CC(C)(O)c1ccccc1 (stereo not given),T/C,"dose: 100.0 mg/kg/injection, schedule: Q01DX001 (ip), vehicle: Klucel (hydroxypropylcellulose) (HPC)",92 % of control
same,T/C,[13],97 % of control and 98 % of control
same,T/C,[6],96 % of control
same,T/C,"dose: 200.0 mg/kg/injection, schedule: Q01DX001 (ip), vehicle: Klucel (hydroxypropylcellulose) (HPC)",97 % of control
same,T/C,[15],108 % of control and 88 % of control
same,T/C,[7],108 % of control
same,T/C,[20],102 % of control
same,T/C,[21],103 % of control
c1ccc2c(c1)O[As](O[As]1Oc3ccccc3O1)O2,T/C,"dose: 1.56 mg/kg/injection, schedule: Q04DX003 (ip), vehicle: saline",104 % of control
same,T/C,"dose: 3.12 mg/kg/injection, schedule: Q01DX009 (ip), vehicle: saline with Tween-80",108 % of control
same,T/C,"dose: 3.12 mg/kg/injection, schedule: Q04DX003 (ip), vehicle: saline",106 % of control
same,T/C,"dose: 6.25 mg/kg/injection, schedule: Q01DX009 (ip), vehicle: saline with Tween-80",116 % of control
same,T/C,"dose: 6.25 mg/kg/injection, schedule: Q04DX003 (ip), vehicle: saline",115 % of control
same,T/C,"dose: 12.5 mg/kg/injection, schedule: Q01DX009 (ip), vehicle: saline with Tween-80",122 % of control
same,T/C,[1],96 % of control
CN(C)C(=S)NCc1ccccc1,T/C,[4],95 % of control
same,T/C,[5],101 % of control
COC1OC2COc3ccccc3OC2C2C1N2C(c1ccccc1)N1C2C(OC)OC3COc4ccccc4OC3C21 (stereo not given),T/C,[6],93 % of control
same,T/C,[7],100 % of control
same,T/C,[21],107 % of control
OC(Cc1ccncc1)(c1ccccc1)c1ccccc1,T/C,[2],88 % of control
same,T/C,[22],88 % of control
same,T/C,[23],109 % of control
CCOC(=O)C1CCc2c(ccc3ccccc23)N1C(C)=O (stereo not given),T/C,[13],94 % of control
same,T/C,[15],88 % of control
same,T/C,[20],91 % of control
CN(C)CCCC1(O)c2ccccc2Sc2cc(Cl)ccc21 (stereo not given),T/C,"dose: 25.0 mg/kg/injection, schedule: Q01DX009 (ip), vehicle: Klucel (hydroxypropylcellulose) (HPC)",91 % of control
same,T/C,"dose: 25.0 mg/kg/injection, schedule: Q04DX002 (ip), vehicle: Klucel (hydroxypropylcellulose) (HPC)",96 % of control
same,T/C,[12],91 % of control
same,T/C,"dose: 50.0 mg/kg/injection, schedule: Q04DX002 (ip), vehicle: Klucel (hydroxypropylcellulose) (HPC)",99 % of control
same,T/C,[13],100 % of control
same,T/C,[6],101 % of control
same,T/C,"dose: 150.0 mg/kg/injection, schedule: Q01DX009 (ip), vehicle: Klucel (hydroxypropylcellulose) (HPC)",97 % of control
same,T/C,"dose: 225.0 mg/kg/injection, schedule: Q01DX009 (ip), vehicle: Klucel (hydroxypropylcellulose) (HPC)",90 % of control
O=C(O)/C=C(\Cl)CC(=O)O,T/C,[18],102 % of control
same,T/C,[19],96 % of control
NC(=O)NC1OC(COC(=O)c2ccccc2)C(OC(=O)c2ccccc2)C1OC(=O)c1ccccc1 (stereo not given),T/C,[4],89 % of control
same,T/C,[2],92 % of control
same,T/C,[5],90 % of control
same,T/C,[22],94 % of control
same,T/C,"dose: 400.0 mg/kg/injection, schedule: Q01DX009 (ip), vehicle: saline with Tween-80",89 % of control
same,T/C,[23],94 % of control
COc1cc(NC(N)=O)cc(OC)c1OC,T/C,"dose: 100.0 mg/kg/injection, schedule: Q01DX009 (ip), vehicle: saline sonified",101 % of control
same,T/C,[14],99 % of control
same,T/C,"dose: 200.0 mg/kg/injection, schedule: Q01DX009 (ip), vehicle: saline sonified",95 % of control
same,T/C,[16],94 % of control
same,T/C,"dose: 400.0 mg/kg/injection, schedule: Q01DX009 (ip), vehicle: saline sonified",101 % of control
same,T/C,[17],99 % of control
CN1CCCCCCCC(=O)C(OC(=O)c2ccc([N+](=O)[O-])cc2)CCCCCCC1 (stereo not given),T/C,[8],95 % of control
same,T/C,[9],97 % of control
same,T/C,[10],95 % of control
same,T/C,[11],95 % of control
C/C(N=Nc1ccccc1)=N\Nc1cccc(C(F)(F)F)c1,T/C,[12],107 % of control
same,T/C,[13],102 % of control
same,T/C,[15],110 % of control
same,T/C,[20],102 % of control
COc1cccc(OC)c1CCCl,T/C,"dose: 100.0 mg/kg/injection, schedule: Q04DX003 (ip), vehicle: saline",95 % of control
same,T/C,"dose: 200.0 mg/kg/injection, schedule: Q04DX003 (ip), vehicle: saline",97 % of control
same,T/C,"dose: 400.0 mg/kg/injection, schedule: Q04DX003 (ip), vehicle: saline",110 % of control
Cc1ccc([N+](=O)[O-])cc1NC(=O)Oc1cc(=O)oc2ccccc12,T/C,[6],104 % of control
same,T/C,[7],90 % of control
same,T/C,[21],93 % of control
